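Growth conditions: 96-well plates. Treatment: test compound, 48 hours, 5 concentrations. Analysis: linear interpolation between bracketing concentrations; unreached endpoints set to highest concentration. The concentration for full growth arrest is given as TGI.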
Assays:
Assay in all cases: NCI-60 cell line screen, 48 h
NCI-H522 lung = test system: NCI-H522 lung
DU-145 prostate = test system: DU-145 prostate
SF-268 CNS = test system: SF-268 CNS
UACC-62 melanoma = test system: UACC-62 melanoma
COLO 205 colon = test system: COLO 205 colon
RPMI-8226 leukemia = test system: RPMI-8226 leukemia
SF-295 CNS = test system: SF-295 CNS
SN12C renal = test system: SN12C renal
A498 renal = test system: A498 renal
HS 578T breast = test system: HS 578T breast
PC-3 prostate = test system: PC-3 prostate
MDA-N = test system: MDA-N
MCF7 breast = test system: MCF7 breast
RXF 393 renal = test system: RXF 393 renal
ACHN renal = test system: ACHN renal
SNB-19 CNS = test system: SNB-19 CNS
SF-539 CNS = test system: SF-539 CNS
SK-OV-3 ovarian = test system: SK-OV-3 ovarian
MALME-3M melanoma = test system: MALME-3M melanoma
A549 NSCLC = test system: A549 NSCLC
MDA-MB-435 = test system: MDA-MB-435
SR leukemia = test system: SR leukemia
HOP-62 NSCLC = test system: HOP-62 NSCLC
M14 melanoma = test system: M14 melanoma
HCT-116 colon = test system: HCT-116 colon
OVCAR-4 ovarian = test system: OVCAR-4 ovarian
MDA-MB-231 breast = test system: MDA-MB-231 breast
NCI-H23 lung = test system: NCI-H23 lung
NCI-H460 lung = test system: NCI-H460 lung
IGROV1 ovarian = test system: IGROV1 ovarian
SK-MEL-2 melanoma = test system: SK-MEL-2 melanoma
KM12 colon = test system: KM12 colon
CAKI-1 renal = test system: CAKI-1 renal
EKVX NSCLC = test system: EKVX NSCLC
SNB-75 CNS = test system: SNB-75 CNS
HL-60(TB) leukemia = test system: HL-60(TB) leukemia
SK-MEL-28 melanoma = test system: SK-MEL-28 melanoma
T-47D breast = test system: T-47D breast
K-562 leukemia = test system: K-562 leukemia
U251 CNS = test system: U251 CNS
NCI/ADR-RES ovarian = test system: NCI/ADR-RES ovarian
TK-10 renal = test system: TK-10 renal
NCI-H226 lung = test system: NCI-H226 lung
HCT-15 colon = test system: HCT-15 colon
CCRF-CEM leukemia = test system: CCRF-CEM leukemia
HCC-2998 colon = test system: HCC-2998 colon
LOX IMVI melanoma = test system: LOX IMVI melanoma
OVCAR-8 ovarian = test system: OVCAR-8 ovarian
786-0 renal = test system: 786-0 renal
OVCAR-5 ovarian = test system: OVCAR-5 ovarian
SW-620 colon = test system: SW-620 colon
OVCAR-3 ovarian = test system: OVCAR-3 ovarian
UACC-257 melanoma = test system: UACC-257 melanoma
HT29 colon = test system: HT29 colon
SK-MEL-5 melanoma = test system: SK-MEL-5 melanoma
HOP-92 NSCLC = test system: HOP-92 NSCLC

Measured: TGI

CC1(C)N=C(C(N)=O)c2ncn(Cc3ccccc3)c2N1
> 100 µM: NCI-H522 lung | DU-145 prostate | SF-268 CNS | UACC-62 melanoma | COLO 205 colon | RPMI-8226 leukemia | SF-295 CNS | SN12C renal | A498 renal | HS 578T breast | PC-3 prostate | MDA-N | MCF7 breast | RXF 393 renal | ACHN renal | SNB-19 CNS | SF-539 CNS | SK-OV-3 ovarian | MALME-3M melanoma | A549 NSCLC | MDA-MB-435 | SR leukemia | HOP-62 NSCLC | M14 melanoma | HCT-116 colon | OVCAR-4 ovarian | MDA-MB-231 breast | NCI-H23 lung | NCI-H460 lung | IGROV1 ovarian | SK-MEL-2 melanoma | KM12 colon | CAKI-1 renal | EKVX NSCLC | SNB-75 CNS | HL-60(TB) leukemia | SK-MEL-28 melanoma | T-47D breast | K-562 leukemia | U251 CNS | NCI/ADR-RES ovarian | TK-10 renal | NCI-H226 lung | HCT-15 colon | CCRF-CEM leukemia | HCC-2998 colon | LOX IMVI melanoma | OVCAR-8 ovarian | 786-0 renal | OVCAR-5 ovarian | SW-620 colon | OVCAR-3 ovarian | UACC-257 melanoma | HT29 colon | SK-MEL-5 melanoma | HOP-92 NSCLC

Source: PubChem BioAssay (NCI)
